Measured values reported in ChEMBL document CHEMBL3132769, “Fragment growing to retain or alter the selectivity of anchored kinase hinge-binding fragments” (Medchemcomm, 2014).

Key:
[1] = biological target: T1, Serine/threonine-protein kinase Sgk3 (Homo sapiens) (UniProt Q96BR1); test: Inhibition of human full length SGK3 expressed in baculovirus assessed as substrate phosphorylation using fluorescence-labelled peptides as substrate at 0.06 uM after 90 mins by microfluidic peptide phosphorylation assay
T1 sequence (whole entry): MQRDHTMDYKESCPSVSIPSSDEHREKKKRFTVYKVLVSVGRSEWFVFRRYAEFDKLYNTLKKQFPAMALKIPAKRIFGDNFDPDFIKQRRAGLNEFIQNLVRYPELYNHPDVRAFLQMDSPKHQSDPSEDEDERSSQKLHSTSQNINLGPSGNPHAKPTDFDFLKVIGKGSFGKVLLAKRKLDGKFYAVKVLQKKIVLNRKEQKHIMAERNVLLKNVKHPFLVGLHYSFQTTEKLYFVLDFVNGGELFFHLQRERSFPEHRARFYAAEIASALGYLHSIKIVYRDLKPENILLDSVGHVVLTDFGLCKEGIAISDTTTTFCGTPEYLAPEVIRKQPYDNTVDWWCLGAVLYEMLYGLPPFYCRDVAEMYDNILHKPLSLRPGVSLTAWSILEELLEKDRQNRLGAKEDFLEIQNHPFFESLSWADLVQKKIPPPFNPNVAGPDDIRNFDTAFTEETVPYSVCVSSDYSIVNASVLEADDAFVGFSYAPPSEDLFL

[2] = biological target: Fibroblast growth factor receptor 1 (Homo sapiens) (UniProt P11362); test: Inhibition of human FGFR1 catalytic domain expressed in baculovirus assessed as substrate phosphorylation using fluorescence-labelled peptides as substrate at 0.06 uM after 90 mins by microfluidic peptide phosphorylation assay
[3] = biological target: T2, Serine/threonine-protein kinase D2 (Homo sapiens) (UniProt Q9BZL6); test: Inhibition of human full length PKD2 expressed in baculovirus assessed as substrate phosphorylation using fluorescence-labelled peptides as substrate at 420 uM after 90 mins by microfluidic peptide phosphorylation assay
T2 sequence (whole entry): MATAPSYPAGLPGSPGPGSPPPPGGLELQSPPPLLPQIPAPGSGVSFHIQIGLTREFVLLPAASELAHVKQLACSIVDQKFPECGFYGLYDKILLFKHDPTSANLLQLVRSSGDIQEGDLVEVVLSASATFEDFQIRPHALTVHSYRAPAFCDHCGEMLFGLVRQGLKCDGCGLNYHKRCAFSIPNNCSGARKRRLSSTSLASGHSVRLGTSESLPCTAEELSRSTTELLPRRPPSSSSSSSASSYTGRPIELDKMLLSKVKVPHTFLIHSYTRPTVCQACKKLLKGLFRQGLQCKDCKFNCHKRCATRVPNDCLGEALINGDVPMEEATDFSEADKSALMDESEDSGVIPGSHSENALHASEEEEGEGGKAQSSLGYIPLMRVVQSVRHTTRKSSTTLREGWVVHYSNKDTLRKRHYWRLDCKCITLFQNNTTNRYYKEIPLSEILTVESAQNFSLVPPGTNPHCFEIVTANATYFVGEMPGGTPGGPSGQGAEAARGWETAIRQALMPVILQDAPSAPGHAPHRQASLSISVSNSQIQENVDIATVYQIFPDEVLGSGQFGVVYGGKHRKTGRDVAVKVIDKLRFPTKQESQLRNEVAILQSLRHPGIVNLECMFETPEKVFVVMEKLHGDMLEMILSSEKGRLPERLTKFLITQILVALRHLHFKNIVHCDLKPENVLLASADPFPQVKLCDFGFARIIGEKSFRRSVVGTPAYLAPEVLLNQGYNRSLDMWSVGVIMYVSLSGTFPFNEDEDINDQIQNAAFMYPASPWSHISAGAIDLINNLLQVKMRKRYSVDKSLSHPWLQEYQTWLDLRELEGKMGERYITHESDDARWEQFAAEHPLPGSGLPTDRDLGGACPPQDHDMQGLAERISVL

[4] = biological target: Serine/threonine-protein kinase PAK 2 (Homo sapiens) (UniProt Q13177); test: Inhibition of human truncated PAK2 expressed in Escherichia coli cell assessed as substrate phosphorylation using fluorescence-labelled peptides as substrate at 0.2 uM after 90 mins by microfluidic peptide phosphorylation assay
[5] = biological target: Protein kinase C alpha type (Homo sapiens) (UniProt P17252); settings: 0.1 uM
Description: Inhibition of human truncated PKC alpha expressed in baculovirus assessed as substrate phosphorylation using fluorescence-labelled peptides as substrate at 0.1 uM after 90 mins by microfluidic peptide phosphorylation assay

[6] = biological target: Protein kinase C delta type (Homo sapiens) (UniProt Q05655); settings: 0.1 uM
Description: Inhibition of human truncated PKC delta expressed in baculovirus assessed as substrate phosphorylation using fluorescence-labelled peptides as substrate at 0.1 uM after 90 mins by microfluidic peptide phosphorylation assay

[7] = biological target: Proto-oncogene tyrosine-protein kinase Src (Homo sapiens) (UniProt P12931); test: Inhibition of human full length SRC expressed in baculovirus assessed as substrate phosphorylation using fluorescence-labelled peptides as substrate at 9 uM after 90 mins by microfluidic peptide phosphorylation assay
[8] = biological target: T3, Interleukin-1 receptor-associated kinase 4 (Homo sapiens) (UniProt Q9NWZ3); test: Inhibition of human IRAK4 catalytic domain expressed in baculovirus assessed as substrate phosphorylation using fluorescence-labelled peptides as substrate at 9 uM after 90 mins by microfluidic peptide phosphorylation assay
T3 sequence (whole entry): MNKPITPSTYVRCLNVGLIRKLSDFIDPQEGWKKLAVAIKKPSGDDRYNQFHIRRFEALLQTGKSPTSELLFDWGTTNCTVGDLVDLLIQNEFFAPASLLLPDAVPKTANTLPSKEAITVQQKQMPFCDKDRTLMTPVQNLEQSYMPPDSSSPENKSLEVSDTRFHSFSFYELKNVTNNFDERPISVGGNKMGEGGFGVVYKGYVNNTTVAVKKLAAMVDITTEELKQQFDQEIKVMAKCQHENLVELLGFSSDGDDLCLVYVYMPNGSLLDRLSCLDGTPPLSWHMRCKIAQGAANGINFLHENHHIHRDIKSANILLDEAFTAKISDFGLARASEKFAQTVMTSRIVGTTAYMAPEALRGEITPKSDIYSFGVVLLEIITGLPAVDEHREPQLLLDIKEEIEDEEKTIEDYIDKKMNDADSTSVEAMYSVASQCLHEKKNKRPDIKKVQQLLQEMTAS

[9] = test system: Tyrosine-protein kinase ABL1 (Homo sapiens), P00519 [Q252H]; test: Inhibition of human truncated ABL Q252H mutant expressed in baculovirus assessed as substrate phosphorylation using fluorescence-labelled peptides as substrate at 70 uM after 90 mins by microfluidic peptide phosphorylation assay
[10] = biological target: Insulin receptor (Homo sapiens) (UniProt P06213); test: Inhibition of human INSR catalytic domain expressed in baculovirus assessed as substrate phosphorylation using fluorescence-labelled peptides as substrate at 70 uM after 90 mins by microfluidic peptide phosphorylation assay
[11] = biological target: Protein kinase C eta type (Homo sapiens) (UniProt P24723); test: Inhibition of human truncated PKC eta expressed in baculovirus assessed as substrate phosphorylation using fluorescence-labelled peptides as substrate at 8 uM after 90 mins by microfluidic peptide phosphorylation assay
[12] = biological target: Proto-oncogene tyrosine-protein kinase Src (Homo sapiens) (UniProt P12931); test: Inhibition of human full length SRC expressed in baculovirus assessed as substrate phosphorylation using fluorescence-labelled peptides as substrate at 1000 uM after 90 mins by microfluidic peptide phosphorylation assay
[13] = biological target: Serine/threonine-protein kinase MARK1 (Homo sapiens) (UniProt Q9P0L2); test: Inhibition of human full length MARK1 expressed in baculovirus assessed as substrate phosphorylation using fluorescence-labelled peptides as substrate at 2 uM after 90 mins by microfluidic peptide phosphorylation assay
Serine/threonine-protein kinase MARK1 (Homo sapiens), sequence (Q9P0L2 whole entry, looked up): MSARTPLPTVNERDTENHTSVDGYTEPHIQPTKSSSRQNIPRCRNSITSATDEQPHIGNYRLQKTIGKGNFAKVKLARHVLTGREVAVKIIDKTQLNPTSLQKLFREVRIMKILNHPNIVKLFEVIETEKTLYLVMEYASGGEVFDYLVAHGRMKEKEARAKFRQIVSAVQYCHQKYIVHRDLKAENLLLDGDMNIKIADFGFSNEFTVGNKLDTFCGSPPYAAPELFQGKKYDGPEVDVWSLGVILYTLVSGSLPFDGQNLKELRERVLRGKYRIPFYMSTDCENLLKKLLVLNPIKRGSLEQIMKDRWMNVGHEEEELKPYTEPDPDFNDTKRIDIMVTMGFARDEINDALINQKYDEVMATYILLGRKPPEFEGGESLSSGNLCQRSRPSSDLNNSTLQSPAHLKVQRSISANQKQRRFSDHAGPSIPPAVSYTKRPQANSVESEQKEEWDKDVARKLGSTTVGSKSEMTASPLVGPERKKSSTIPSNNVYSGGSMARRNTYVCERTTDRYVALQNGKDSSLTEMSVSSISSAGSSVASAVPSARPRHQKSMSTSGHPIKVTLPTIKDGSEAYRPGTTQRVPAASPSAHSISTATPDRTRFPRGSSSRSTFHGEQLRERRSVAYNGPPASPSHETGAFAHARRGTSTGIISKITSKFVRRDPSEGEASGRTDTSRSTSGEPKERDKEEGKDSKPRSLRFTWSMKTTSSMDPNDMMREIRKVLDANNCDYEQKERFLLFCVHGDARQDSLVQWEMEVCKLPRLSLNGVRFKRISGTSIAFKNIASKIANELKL

Proto-oncogene tyrosine-protein kinase Src (Homo sapiens), sequence (P12931 2-536 limits assumed): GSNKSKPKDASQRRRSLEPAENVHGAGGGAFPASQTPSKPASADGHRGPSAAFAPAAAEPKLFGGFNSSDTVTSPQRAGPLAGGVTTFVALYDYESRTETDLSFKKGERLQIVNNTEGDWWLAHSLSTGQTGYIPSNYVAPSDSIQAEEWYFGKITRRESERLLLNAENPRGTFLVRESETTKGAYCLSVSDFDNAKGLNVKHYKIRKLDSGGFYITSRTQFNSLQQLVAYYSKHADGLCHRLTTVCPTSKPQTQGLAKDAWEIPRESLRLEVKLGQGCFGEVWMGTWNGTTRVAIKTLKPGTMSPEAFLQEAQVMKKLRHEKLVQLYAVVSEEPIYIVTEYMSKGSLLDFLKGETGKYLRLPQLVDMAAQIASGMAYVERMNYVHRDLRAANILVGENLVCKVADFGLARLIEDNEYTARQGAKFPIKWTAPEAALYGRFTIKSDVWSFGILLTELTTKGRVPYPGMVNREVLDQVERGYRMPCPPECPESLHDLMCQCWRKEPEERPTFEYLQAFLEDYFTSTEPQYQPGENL
Serine/threonine-protein kinase PAK 2 (Homo sapiens), sequence (Q13177 whole entry, the tested form may be a part): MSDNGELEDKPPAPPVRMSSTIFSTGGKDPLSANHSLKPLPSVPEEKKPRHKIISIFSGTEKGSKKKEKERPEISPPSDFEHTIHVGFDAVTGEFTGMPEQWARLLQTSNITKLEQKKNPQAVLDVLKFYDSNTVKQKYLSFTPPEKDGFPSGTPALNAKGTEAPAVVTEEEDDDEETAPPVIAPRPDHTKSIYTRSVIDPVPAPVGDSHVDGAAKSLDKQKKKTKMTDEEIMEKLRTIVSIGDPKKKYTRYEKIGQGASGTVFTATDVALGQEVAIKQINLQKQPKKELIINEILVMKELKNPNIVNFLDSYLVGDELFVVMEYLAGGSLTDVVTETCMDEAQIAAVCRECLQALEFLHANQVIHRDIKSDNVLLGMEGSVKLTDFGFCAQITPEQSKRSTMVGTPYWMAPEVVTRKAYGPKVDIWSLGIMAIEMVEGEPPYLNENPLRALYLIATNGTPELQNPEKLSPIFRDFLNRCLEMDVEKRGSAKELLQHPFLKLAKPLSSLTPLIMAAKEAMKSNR
Protein kinase C delta type (Homo sapiens), sequence (Q05655 whole entry, looked up): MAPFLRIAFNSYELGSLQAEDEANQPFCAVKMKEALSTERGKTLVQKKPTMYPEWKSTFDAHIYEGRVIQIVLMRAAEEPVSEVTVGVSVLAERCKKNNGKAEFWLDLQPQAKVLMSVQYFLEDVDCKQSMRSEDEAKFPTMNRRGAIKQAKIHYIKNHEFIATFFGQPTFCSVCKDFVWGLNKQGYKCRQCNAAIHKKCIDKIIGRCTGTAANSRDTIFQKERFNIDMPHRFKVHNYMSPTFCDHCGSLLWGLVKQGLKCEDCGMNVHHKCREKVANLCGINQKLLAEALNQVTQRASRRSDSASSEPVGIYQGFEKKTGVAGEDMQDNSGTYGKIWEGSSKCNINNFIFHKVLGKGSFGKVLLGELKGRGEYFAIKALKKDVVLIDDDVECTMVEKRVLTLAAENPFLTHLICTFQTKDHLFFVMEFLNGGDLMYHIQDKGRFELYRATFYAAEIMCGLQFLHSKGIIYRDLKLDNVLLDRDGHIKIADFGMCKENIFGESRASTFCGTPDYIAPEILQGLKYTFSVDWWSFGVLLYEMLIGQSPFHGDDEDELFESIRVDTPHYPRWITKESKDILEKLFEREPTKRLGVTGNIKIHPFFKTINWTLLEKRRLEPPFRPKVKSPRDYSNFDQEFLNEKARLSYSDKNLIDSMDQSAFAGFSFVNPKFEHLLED
Fibroblast growth factor receptor 1 (Homo sapiens), sequence (P11362 22-822 limits assumed): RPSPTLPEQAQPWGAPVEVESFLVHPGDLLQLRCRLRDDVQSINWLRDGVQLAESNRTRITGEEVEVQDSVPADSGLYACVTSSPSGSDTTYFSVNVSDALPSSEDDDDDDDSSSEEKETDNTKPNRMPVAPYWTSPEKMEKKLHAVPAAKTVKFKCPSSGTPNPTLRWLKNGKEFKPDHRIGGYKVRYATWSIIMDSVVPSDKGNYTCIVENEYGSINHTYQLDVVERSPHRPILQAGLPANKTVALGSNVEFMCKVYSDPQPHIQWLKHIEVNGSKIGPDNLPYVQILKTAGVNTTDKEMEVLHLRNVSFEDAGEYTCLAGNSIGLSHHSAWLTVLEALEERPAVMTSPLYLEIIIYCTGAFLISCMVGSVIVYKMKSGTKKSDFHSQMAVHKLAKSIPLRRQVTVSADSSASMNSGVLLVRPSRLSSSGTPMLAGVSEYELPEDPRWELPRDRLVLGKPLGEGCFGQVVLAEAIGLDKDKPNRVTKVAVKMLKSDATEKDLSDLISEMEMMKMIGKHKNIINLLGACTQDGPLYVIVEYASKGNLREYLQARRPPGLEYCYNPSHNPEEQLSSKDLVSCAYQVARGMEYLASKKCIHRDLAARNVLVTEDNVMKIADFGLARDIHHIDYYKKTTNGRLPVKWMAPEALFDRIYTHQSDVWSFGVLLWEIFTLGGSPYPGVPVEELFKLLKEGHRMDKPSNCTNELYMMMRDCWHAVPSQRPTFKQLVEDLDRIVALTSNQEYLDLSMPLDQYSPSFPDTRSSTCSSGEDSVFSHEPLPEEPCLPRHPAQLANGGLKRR
Protein kinase C eta type (Homo sapiens), sequence (P24723 whole entry, the tested form may be a part): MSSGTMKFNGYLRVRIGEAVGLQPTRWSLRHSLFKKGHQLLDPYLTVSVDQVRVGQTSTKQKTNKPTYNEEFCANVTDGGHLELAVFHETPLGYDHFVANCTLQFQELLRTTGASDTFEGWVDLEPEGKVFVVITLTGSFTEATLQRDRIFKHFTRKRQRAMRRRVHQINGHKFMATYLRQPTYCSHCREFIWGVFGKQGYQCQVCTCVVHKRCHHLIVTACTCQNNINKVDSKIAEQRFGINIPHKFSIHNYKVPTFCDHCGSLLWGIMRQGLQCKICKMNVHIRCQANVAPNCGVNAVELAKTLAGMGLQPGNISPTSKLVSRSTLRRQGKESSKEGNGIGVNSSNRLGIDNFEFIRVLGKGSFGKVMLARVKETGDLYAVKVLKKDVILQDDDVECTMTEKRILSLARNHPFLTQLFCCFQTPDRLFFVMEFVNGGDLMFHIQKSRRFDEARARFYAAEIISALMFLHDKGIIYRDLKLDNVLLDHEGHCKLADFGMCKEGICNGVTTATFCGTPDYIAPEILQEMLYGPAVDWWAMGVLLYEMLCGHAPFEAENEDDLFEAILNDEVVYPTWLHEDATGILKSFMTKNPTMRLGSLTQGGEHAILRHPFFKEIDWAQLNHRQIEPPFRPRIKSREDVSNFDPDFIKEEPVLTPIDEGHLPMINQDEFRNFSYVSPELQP

`NC1(Cc2ccc(Cl)cc2)CCN(c2ncnc3[nH]ccc23)CC1` gave an inhibition [1] of 42.5% and an inhibition [2] of 0%.

Work on `c1nc(N2CCOCC2)c2nc[nH]c2n1` yielded an inhibition [3] of 70%.

Work on `Clc1ccc(C2(c3ccc(-c4ncnc5[nH]cnc45)cc3)CCNCC2)cc1` yielded an inhibition [4] of 11%.

Compound `C[C@H](CN(C)C)Oc1nc(Nc2cc3cccc(Cl)c3cn2)cnc1C#N` has an inhibition [5] of 0% and an inhibition [6] of 0%.

For `NCC1CN(c2ncnc3[nH]c4cnccc4c23)CCO1` (stereo not drawn), the inhibition [7] was 19.5% and the inhibition [8] was 56.5%.

With `CNCc1ccc(-c2ncnc3[nH]cnc23)cc1` the inhibition [9] was 39% and the inhibition [10] was 0%.

With `NCC1CCN(c2ncnc3[nH]ccc23)CC1` the inhibition [11] was 82%.

For `c1cnc2[nH]ccc2c1`, the inhibition [12] was 28.5%.

`NC1CCN(c2ncnc3[nH]ccc23)CC1` gave an inhibition [13] of 34.5%.
